Laboratory results reported in patent US8809372B2, “Pyridine derivatives” (Endo Pharmaceuticals, Inc., priority 2011, dated 2014).

Legend:
[1] = target: T1, human CYP17 in H295R adrenocortical carcinoma cells (Homo sapiens, UniProt P05093); assay: Cell-based human CYP17 inhibition assay, H295R cells; conditions: 16 hours, read-out: CYP17 (human H295R adrenal cells)
T1 construct: H295R Adrenocortical carcinoma cells [NCI-H295A, ATCC Number CRL-2128, American Type Culture Collection; host or cells: H295R adrenocortical carcinoma cells
T1 sequence (P05093 1-508): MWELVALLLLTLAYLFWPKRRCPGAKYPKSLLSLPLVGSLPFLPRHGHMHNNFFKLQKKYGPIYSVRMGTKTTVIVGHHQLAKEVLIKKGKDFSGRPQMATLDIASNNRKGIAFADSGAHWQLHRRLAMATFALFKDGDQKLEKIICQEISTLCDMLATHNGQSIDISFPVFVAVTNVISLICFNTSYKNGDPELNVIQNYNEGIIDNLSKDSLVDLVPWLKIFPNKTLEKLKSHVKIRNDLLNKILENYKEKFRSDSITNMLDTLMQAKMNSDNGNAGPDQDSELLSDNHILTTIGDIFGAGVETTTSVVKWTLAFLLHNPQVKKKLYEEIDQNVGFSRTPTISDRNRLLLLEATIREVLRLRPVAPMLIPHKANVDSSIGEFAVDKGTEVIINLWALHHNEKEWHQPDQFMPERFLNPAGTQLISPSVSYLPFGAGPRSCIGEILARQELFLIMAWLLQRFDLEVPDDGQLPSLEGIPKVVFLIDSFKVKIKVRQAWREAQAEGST
Method: Cell-Based Human CYP17 Inhibition Assay
1. H295R Adrenocortical Carcinoma Cells and Growth Media: The media for the H295R Adrenocortical carcinoma cells [NCI-H295A, ATCC Number CRL-2128, American Type Culture Collection, Manassas, Va., US] (500 mL) was a DMEM:F12 Mix 1:1 with 5% (2 mL) BD Nu Serum; 1% (5 mL) ITS+Premix [BD Biosciences] and 1% Penstrep. 2. LNCap-CYP17 Cells and Growth Media: Full length hCYP17a1 gene (NCBI Reference Sequence: NM_000102.3) was cloned in pcDNA3.1(+) vector between HindIII and XhoI site. The pcDNA3.1(+) vector contains the Neomycin resistance gene and was used for selection of stable cell line. The hCYP17a1 containing pcDNA3.1(+) was transfected into LNCap cells to create the LNCap-CYP17 cell line. The media for the LNCaP-CYP17 cells was RPMI 1640, 10% FBS, 1% PenStrep, Geneticin 400 μg/mL.
The H295R cells or LNCaP-hCYP17 cells were subcultured and 30,000 cells per well were seeded in a poly-d lysine plate and incubated overnight at 37° C. The next day the media was removed and 200 μL of fresh media with ^3H3-17α-hydroxy-pregnenolone (1:1000) was added. 50 μL of serially diluted compounds from a 5× plate (5 times the final desired concentration) was added. The working concentration range for active, new compounds started from a high concentration of 10 μM with 3-fold serial dilutions generating up to 10 concentrations. The serial dilution in the 100× plate (in DMSO) and the stamping of a 5× plate (in media) from the 100× plate were carried out using a TECAN liquid handling device.
The plates were incubated overnight (16 hours) at 37° C. After 16 hours, the media was removed (approximately 220 μL) and an equal amount of chloroform was added, mixed and incubated for 30 minutes at 4 degrees. The plate was centrifuged at 4000 rpm for 15 minutes at 4° C., following which the top aqueous layer was carefully removed and added into a new deep well plate. An equal volume of activated 5% charcoal was added, mixed and incubated for 30 minutes at 4° C. The plate was then centrifuged at 4000 rpm for 15 minutes at 4° C. and the top layer carefully separated, avoiding any charcoal contamination, and placed in a white, clear bottom plate (plate cat #3610, Corning Life Sciences). An equal volume of Microscint™ 40 was added and mixed well. Following the incubation for 30 minutes, readings for the radiotracer were taken using a Microbeta® trilux.

[2] = target: T2, rat CYP17 (rat testicular microsomes) (Rattus norvegicus, UniProt P11715); assay: CYP17 inhibition assay in rat testicular microsomes; assay type: biochemical
T2 construct: Rat testis tissue was collected and disrupted with 30 strokes of a glass homogenizer; from tissue; host or cells: rat testis (microsomes)
T2 sequence (P11715 1-507): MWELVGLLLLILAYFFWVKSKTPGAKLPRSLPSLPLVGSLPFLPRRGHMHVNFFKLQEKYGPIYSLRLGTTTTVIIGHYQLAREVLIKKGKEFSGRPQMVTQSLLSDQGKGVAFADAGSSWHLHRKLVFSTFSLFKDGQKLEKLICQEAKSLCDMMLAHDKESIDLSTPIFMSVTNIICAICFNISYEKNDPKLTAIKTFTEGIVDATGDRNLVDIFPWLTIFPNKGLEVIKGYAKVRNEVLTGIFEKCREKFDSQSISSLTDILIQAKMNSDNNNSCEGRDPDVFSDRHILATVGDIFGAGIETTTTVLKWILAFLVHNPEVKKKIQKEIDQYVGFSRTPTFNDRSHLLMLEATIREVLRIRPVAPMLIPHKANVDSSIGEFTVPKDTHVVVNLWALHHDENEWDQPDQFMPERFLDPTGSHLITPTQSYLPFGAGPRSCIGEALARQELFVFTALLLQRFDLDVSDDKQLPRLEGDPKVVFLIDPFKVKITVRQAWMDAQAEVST
Method: CYP17 Inhibition Assay in Rat Testicular Microsomes (Rat CYP17) or Yeast Microsome Overexpressing Human CYP17
1. NADPH (Sigma): A working stock was prepared by adding 25 μL of 6.5 mM NADPH in each tube. The final concentration of NADPH used in the assay was 325 μM.
2. Potassium Phosphate Buffer: One molar (1M) solutions of K2HPO4 and KH2PO4 were prepared. Eight mL of the 1 M KH2PO4 and 1.98 mL of the 1 M K2HPO4 were combined and the pH was adjusted to 7.4.
3. ^3H3-17α-hydroxypregnenolone (American Radiolabeled Chemicals, Inc., stock 1 μCi/μL): A 1:1 dilution of ^3H3-17α-hydroxypregnenolone in ethanol was prepared by combining 100 μL ^3H3-17α-hydroxypregnenolone+100 μL ethanol for one complete 96 well plate. For the reaction, 2 μL of the diluted ^3H3-17α-hydroxypregnenolone was added in each tube, i.e., 1 μCi/reaction. 4. Microsome Isolation Buffer: The microsome isolation buffer was prepared by combining 250 mM Sucrose, 5 mM EDTA, 10 mM Tris HCl, 4 mM DTT, and adjusting to pH 7.4. 5. TEG Buffer: The TEG buffer was prepared by combining 50 mM Tris HCl, 1 mM EDTA, and 20% Glycerol. 6. Rat Testicular Microsomes: Rat testis tissue was collected and disrupted with 30 strokes of a glass homogenizer on ice with 250 μL of microsome isolation buffer, followed by centrifugation at 10,000 g for 10 minutes at 4° C. The supernatant was collected and centrifuged at 100,000 g for 45 minutes at 4° C. The pellet was dissolved in TEG Buffer and the protein was quantified. The homogenized microsome samples were then frozen at −80° C. • 7. Yeast Microsomes which overexpress the human CYP17 enzyme were obtained from Premas Biotech, India.
Potassium phosphate buffer (470 μL) was prepared as described above and was added to each well of a deep well plate. The test compound was diluted using a TECAN liquid handler and 5 μL of diluted compound was transferred to each well (96 deep well/1 mL). A solution (25 μL) of 6.5 mM NADPH was added (final concentration of 325 μM in the assay). ^3H3-17α-hydroxypregnenolone (2 μL of the working stock) was added to each tube. The plates were then pre-incubated for 15 minutes at 37° C. Following the pre-incubation, either 5 μL rat testicular microsomes (150-160 μg) or 5 μL of yeast microsomes expressing human CYP17 (1.7 pmol), was added. Incubation was at 37° C. for 60 minutes in the presence of oxygen. The plates were then placed in ice and chloroform (500 μL) was added, mixed well and incubated at 4° C. for 20 minutes. The plates were then centrifuged at 1000 rpm for 15 minutes at 4° C.
A portion (300 μL) of the aqueous solution was collected and mixed with a 5% aqueous suspension of activated charcoal (300 μL). The plates were then incubated at 4° C. for 30 minutes, after which the plates were centrifuged at 1000 rpm for 15 minutes at 4° C. From this, 125 μL of the aqueous solution was collected and plated into a 96 well plate. Microscint™ 40 [125 μL, Perkin-Elmer; containing a mixture of a polymer based on alkylphenolethoxylate (20-40%), diethanolamine-phosphoric acid ester ammonium salt (10-20%), sodium dioctyl sulphosuccinate (2.5-10%), triethyl phosphate (2.5-10%), 3,6-dimethyl-4-octyne-3,6-diol (≦2.5%), a polymer based on nonylphenolethoxylate (≦2.5%), diisopropyl naphthalene isomers (40-60%), 2,5-diphenyloxazole (≦2.5%), and 9,10-dimethylanthracene] was added and mixed well. After 30 minutes of incubation, the samples were analyzed with a MicroBeta® Trilux microplate liquid scintillation counter and luminometer (Perkin-Elmer).

Row | SMILES | IC50 [1] [µM] | IC50 [2] [µM]
1 | CC(O)(c1ccncc1)c1cc(-c2ccc(F)cc2)n[nH]1 (stereo not drawn) [Example 49, 1-(3-(4-fluorophenyl)-1H-pyrazol-5-yl)-1-(pyridin-4-yl)ethanol] | 0.201 to 10 | < 0.05
2 | OC1(c2cnc(-c3ccc(F)cc3)s2)CCc2cnccc21 (stereo not drawn) [Example 59, 5-(2-(4-fluorophenyl)thiazol-5-yl)-6,7-dihydro-5H-cyclopenta[c]pyridin-5-ol] | 0.201 to 10 | 0.05 to 0.2
3 | CC(O)(c1ccncc1)c1cc(-c2ccc(F)cc2)on1 (stereo not drawn) [Example 50, 1-(5-(4-fluorophenyl)isoxazol-3-yl)-1-(pyridin-4-yl)ethanol] | 0.05 to 0.2 | < 0.05
4 | CCC(O)(c1ccncc1)c1ncc(-c2ccc(F)cc2)s1 (stereo not drawn) [Example 13, 1-(5-(4-Fluorophenyl)thiazol-2-yl)-1-(pyridin-4-yl)propan-1-ol] | 0.201 to 10 | < 0.05
5 | OC1(c2cnc(-c3ccc(F)cc3)s2)CCCc2cnccc21 (stereo not drawn) [Example 25, 5-(2-(4-fluorophenyl)thiazol-5-yl)-5,6,7,8-tetrahydroisoquinolin-5-ol] | 0.201 to 10 | < 0.05
6 | CC(O)(c1ccncc1)c1cc(-c2ccc(F)cc2)no1 (stereo not drawn) [Example 32, 1-[3-(4-Fluoro-phenyl)-isoxazol-5-yl]-1-pyridin-4-yl-ethanol] | 0.05 to 0.2 | < 0.05
7 | OC(c1ccncc1)c1cnc(-c2ccc(F)cc2)s1 (stereo not drawn) [Example 24, [2-(4-fluorophenyl)-1,3-thiazol-5-yl](pyridin-4-yl)methanol] | 0.05 to 0.2 | < 0.05
8 | CC(O)(c1ccncc1)c1noc(-c2ccc(F)cc2)n1 (stereo not drawn) [Example 29, 1-(5-(4-Fluorophenyl)-1,2,4-oxadiazol-3-yl)-1-(pyridin-4-yl)ethanol] | 0.201 to 10 | < 0.05
9 | CCC(O)(c1ccncc1)c1nnc(-c2ccc(F)cc2)s1 (stereo not drawn) [Example 21, 1-(5-(4-fluorophenyl)-1,3,4-thiadiazol-2-yl)-1-(pyridin-4-yl)propan-1-ol] | 0.201 to 10 | < 0.05
10 | CCCCC(=O)c1ccc(-c2ccc(C(C)(O)c3ccncc3)nc2)cn1 (stereo not drawn) [Example 62, 1-(6′-(1-hydroxy-1-(pyridin-4-yl)ethyl)-[3,3′-bipyridin]-6-yl)pentan-1-one] | 0.201 to 10 | 0.05 to 0.2

Now from value to molecule:

Row | IC50 [1] [µM] | IC50 [2] [µM] | SMILES
11 | 0.201 to 10 | < 0.05 | CC(O)(c1ccncc1)c1cnc(-c2ccc(F)cc2)o1 (stereo not drawn) [Example 23, 1-(2-(4-Fluorophenyl)oxazol-5-yl)-1-(pyridin-4-yl)ethanol]
12 | 0.201 to 10 | < 0.05 | CC(O)(c1ccncc1)c1cnc(-c2cncnc2)s1 (stereo not drawn) [Example 64, 1-(pyridin-4-yl)-1-(2-(pyrimidin-5-yl)thiazol-5-yl)ethanol]
13 | 0.05 to 0.2 | < 0.05 | CC(O)(c1ccncc1)c1cnc(-c2ccc(C#N)c(C(F)(F)F)c2)s1 (stereo not drawn) [Example 30, 4-(5-(1-Hydroxy-1-(pyridin-4-yl)ethyl)thiazol-2-yl)-2-(trifluoro-methyl)benzonitrile]
14 | 0.05 to 0.2 | < 0.05 | CC(O)(c1ccncc1)c1cnc(-c2ccc(C#N)c(Cl)c2)s1 (stereo not drawn) [Example 38, 2-chloro-4-(5-(1-hydroxy-1-(pyridin-4-yl)ethyl)thiazol-2-yl)benzonitrile]
15 | < 0.05 | < 0.05 | CC(O)(c1ccncc1)c1cnc(-c2ccc(Cl)c(C#N)c2)s1 (stereo not drawn) [Example 42, 2-chloro-5-(5-(1-hydroxy-1-(pyridin-4-yl)ethyl)thiazol-2-yl)benzonitrile]
16 | < 0.05 | < 0.05 | CC(C)CC(O)(c1ccncc1)c1cnc(-c2ccc(F)cc2)s1 (stereo not drawn) [Example 47, 1-(2-(4-fluorophenyl)thiazol-5-yl)-3-methyl-1-(pyridin-4-yl)butan-1-ol]
17 | < 0.05 | < 0.05 | CC(O)(c1ccncc1)c1cnc(-c2ccc(F)c(C#N)c2)s1 (stereo not drawn) [Example 40, 2-fluoro-5-(5-(1-hydroxy-1-(pyridin-4-yl)ethyl)thiazol-2-yl)benzonitrile]
18 | 0.201 to 10 | 0.05 to 0.2 | CC(O)(c1ccncc1)c1nnc(-c2ccc(F)cc2)o1 (stereo not drawn) [Example 31, 1-(5-(4-Fluorophenyl)-1,3,4-oxadiazol-2-yl)-1-(pyridin-4-yl)ethanol]
